# Laboratory results taken from PubChem BioAssay (NCI).
#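 96-well plates; 48 h exposure; 5 concentrations. Endpoints by linear interpolation between flanking doses. Not reached: highest tested concentration assigned. GI50 = concentration required for 50% inhibition of growth. TGI: concentration producing complete growth inhibition.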
# Columns and labels:
# Test in all cases: DTP human tumour cell line panel, 48 h
# ACHN renal = system: ACHN renal
# HCT-116 colon = system: HCT-116 colon
# HL-60(TB) leukemia = system: HL-60(TB) leukemia
# HOP-92 NSCLC = system: HOP-92 NSCLC
# M14 melanoma = system: M14 melanoma
# MDA-MB-231 breast = system: MDA-MB-231 breast
# MOLT-4 leukemia = system: MOLT-4 leukemia
# NCI-H226 lung = system: NCI-H226 lung
# SF-539 CNS = system: SF-539 CNS
# SK-MEL-5 melanoma = system: SK-MEL-5 melanoma
Structure (SMILES),GI50 (ACHN renal) [µM],TGI (ACHN renal) [µM],GI50 (HCT-116 colon) [µM],TGI (HCT-116 colon) [µM],GI50 (HL-60(TB) leukemia) [µM],GI50 (HOP-92 NSCLC) [µM],TGI (HOP-92 NSCLC) [µM],GI50 (M14 melanoma) [µM],TGI (M14 melanoma) [µM],GI50 (MDA-MB-231 breast) [µM],TGI (MDA-MB-231 breast) [µM],GI50 (MOLT-4 leukemia) [µM],TGI (MOLT-4 leukemia) [µM],GI50 (NCI-H226 lung) [µM],TGI (NCI-H226 lung) [µM],GI50 (SF-539 CNS) [µM],TGI (SF-539 CNS) [µM],GI50 (SK-MEL-5 melanoma) [µM],TGI (SK-MEL-5 melanoma) [µM],TGI (HL-60(TB) leukemia) [µM]
COc1cc(C2C3=C(COC3=O)N(CCO)c3cc4c(cc32)CCC4)cc(OC)c1OC (centres undefined),0.229,> 32.5,0.0919,0.409,0.0842,0.862,> 25.3,0.0672,0.199,0.137,> 32.5,0.147,> 32.5,0.417,> 32.5,0.091,0.663,0.0956,0.451,
COc1ccc(N2CCN(CC(=O)N3CCN(c4nnc(-c5ccc(Cl)cc5)c(-c5ccc(Cl)cc5)n4)CC3)CC2)cc1,6.42,55.6,3.96,> 100,14.3,11.1,30.5,12.7,> 100,35.4,> 100,3.1,> 100,> 100,> 100,3.66,17.3,5.52,52.4,> 100
COc1ccc(/C=C2\CC(C)CC3C2=NN(C(C)=O)C3c2ccc(OC)c(OC)c2)cc1OC (centres undefined),17.6,46.5,13.7,26.6,12.6,13.8,33.5,15.1,28.7,24.5,> 100,12.6,43.6,18.8,> 100,20.2,37.8,12.7,27.4,52.1
C/C=C\C(C)=C/C(C)C(=O)CC(O)CC1CC(=O)NC(=O)C1 (centres undefined),,> 100,,> 100,,,> 100,,> 100,,> 100,,> 28.2,,> 100,,> 100,,> 100,> 100
C#Cc1cccc(NC(=O)Nc2cccc(NC(=O)CCl)c2)c1,41.5,> 82.5,20.9,> 82.5,18.6,> 82.5,> 82.5,23.6,> 82.5,22.9,65.2,12.5,81.4,21.6,75.2,14,27.8,15.7,36.2,73.9
